In US4152519A, “16-Hydroxy aspidospermidines and a process for their production” (Parcor, priority 1976, dated 1979):

What was measured:
[1] = acute toxicity in the mouse (LD50, SPEARMAN-KARBER method); conditions: in vivo
Procedure: (§1) The results of the study of the acute toxicity were as follows, the tests having been carried out on the mouse and rat, whilst the product was administered intravenously, subcutaneously and by oesophageal tube. The doses studied were administered in a volume of 1 ml/100 g of body weight, whilst each dose was administered to 5 males and 5 females; the LD 50 was investigated using the SPEARMAN-KARBER method.

[2] = acute toxicity in the rat (LD50, SPEARMAN-KARBER method); conditions: in vivo
Procedure: as §1

[3] = in vivo
Source text: 2. the chronic toxicity (rats and dogs),
4. the local and general tolerance,
5. the possible teratogenic effects, […]

[4] = tested on: low-pressure hypoxia; assay: mortality caused by low-pressure hypoxia in the mouse; format: in vivo, mouse (NMRI-Han); parameters: survival time, average and standard deviation: unit not given here
Procedure: An artificial altitude was created by placing the mouse in a sealed box and progressively reducing the pressure to 190 mm of mercury (equivalent to about 10,000 meters altitude) using a CEM-type pump, so that the desired altitude is obtained in 1 minute 10 seconds on average. A stopwatch is then started and the exact time when the chest movements cease is noted. Any mouse whose survival time is more than twice the average value noted in the corresponding "solvent control" series is regarded as protected.
The ED50 was calculated from the percentage of "protected" mice using the graphical method indicated by LITCHFIELD and WILCOXON (J. Pharm. Exp. Ther., 1949, 96, 99-113).
The compound was administered by intraperitoneal route 20 minutes before the altitude is artifically created; whatever the dose, the volume injected was always equal to 20 ml/kg.
The effects were also examined after administration by oesophageal tube 60 minutes before the test, whilst the volume administered is always 20 ml/kg.
The entire study was carried out on adult male EOPS mice (4 to 5 weeks old) of the NMRI-Han strain, divided into random test groups after being fed only water for 18 hours.

[5] = tested on: cortical electrogenesis disrupted by the presence of a unilateral cerebral oedema; assay: effect on cortical electrogenesis disrupted by unilateral cerebral oedema in the unanaesthetised rabbit; format: in vivo
Procedure: 48 hours before use, the animal's cranium is exposed and stainless steel electrodes are screwed on so as to contact the dura mater on the frontal and occipital lobes on both sides of the median and transverse sutures. The electrocorticogram is recorded on a REEGA MINI HUIT TR electroencephalograph mounted transversely and longitudinally, whilst a 4th channel serves to record the electrocardiogram. Moreover, a flap of bone 7 to 10 mm in diameter was removed on one side, and this operation was not found, 48 hours later, to have caused any appreciable disruption of the electrical activity of the cortex.
An oedema was then produced by removing the dura mater and arachnoid; it usually takes the form of a hernia of the cortex. The treatment is then given and the electrocorticographic trace is monitored every hour during and after administration of the test products, then 24 and 48 hours later.
The action of the test products is assessed on the basic electrogenesis, particularly on the presence of slow waves and on the signs of cortical reactivity to two exteroceptive stimuli: a receptive stimulus (electrical tone lasting 2 seconds) and a nociceptive stimulation of the nerve endings in the skin by pinching the dorsal skin using KOCHER forceps.
The compounds are administered by either intravenous or intragastric route.

[6] = tested on: "spatial disorientation" syndrome; assay: effect on a "spatial disorientation" syndrome in the rat (aquatic labyrinth after electric shock); format: in vivo, rat (Wistar AF-Han)
Procedure: This study was carried out using male rats of the Wistar AF-Han EOPS strains weighing about 160 g and about 6 to 7 weeks old.
After being guided through once by the experimenter, the rats are first of all subjected to 4 tests in 2 days in an aquatic labyrinth described by GIURGEA and MOURAVIEFFLESUISSE (J. Pharmacol. PARIS, 1972, 3, 1, 17-30).
On the 3rd day, the rats are subjected to a supramaximal electric shock delivered by a Neurovac controlled by a CRC OC 342 oscillograph; the electric shock has the following characteristics: 100 Hz, 0.5 ms, 1 second, 60 volts.
After passing through the labyrinth 20 minutes after the electric shock, the rats are given their treatment by oesophageal tube. Two tests are carried out 40 and 100 minutes after treatment, i.e. 60 and 120 minutes after the electric shock, and the time taken to pass through the labyrinth by each animal is timed; the number of errors is also noted.
The rats are put on a diet of water for 18 hours after passing through for the 4th time. The compound is administered by intragastric route in a volume of 5 ml/kg.
time taken to leave the aquatic labyrinth;
average number of errors made in an effort to leave the labyrinth;
percentage of "normal" subjects, i.e. rats passing through the labyrinth with only 0-4 errors.

[7] = stability in acidic medium; format: physicochemical
[8] = 50 mg/kg group, 20 minutes after electric shock (before treatment)
[9] = 50 mg/kg group, before electric shock (before treatment)
[10] = 50 mg/kg intragastric, 60 minutes after electric shock (40 minutes after treatment)
[11] = 50 mg/kg intragastric, 120 minutes after electric shock (100 minutes after treatment)
[12] = 100 mg/kg group, 20 minutes after electric shock (before treatment)
[13] = 100 mg/kg group, before electric shock (before treatment)
[14] = 100 mg/kg intragastric, 60 minutes after electric shock (40 minutes after treatment)
[15] = 100 mg/kg intragastric, 120 minutes after electric shock (100 minutes after treatment)

## CCC12CCCN3CCC4(C(=Nc5ccccc54)C(O)(C(=O)OC)C1)C32 (single isomer, unassigned) [the compound]
[1]; iv
  LD50 at 72 h: 86 mg/kg
[1]; po
  LD50 at 72 h: 860 mg/kg
[1]; sc
  LD50 at 72 h: 176 mg/kg
[2]; iv
  LD50 at 72 h: 63.4 mg/kg
[2]; po
  LD50 at 72 h: 777 mg/kg
[2]; sc
  LD50 at 72 h: 126 mg/kg
[3]
  tolerance: tolerated well both orally and by parenteral or intramuscular route, without causing local or general reactions
[4]; 2.5 mg/kg i.p., 20 minutes before altitude
  survival time, average and standard deviation: 88.4 ± 7.01
[4]; 5.0 mg/kg i.p., 20 minutes before altitude
  survival time, average and standard deviation: 108.5 ± 20.22
[4]; 10.0 mg/kg i.p., 20 minutes before altitude
  survival time, average and standard deviation: 155.7 ± 30.42
[4]; 15 mg/kg i.p., 20 minutes before altitude
  survival time, average and standard deviation: 179.6 ± 32.07
[4]; 20 mg/kg i.p., 20 minutes before altitude
  survival time, average and standard deviation: 275.4 ± 39.77
[4]; 30 mg/kg i.p., 20 minutes before altitude
  survival time, average and standard deviation: 308.5 ± 35.65
[4]; 50 mg/kg p.o., 60 minutes before test
  survival time, average and standard deviation: 122.6 ± 11.75
[4]; 100 mg/kg p.o., 60 minutes before test
  survival time, average and standard deviation: 186.8 ± 25.70
[4]; 150 mg/kg p.o., 60 minutes before test
  survival time, average and standard deviation: 179.7 ± 20.23
[4]; 200 mg/kg p.o., 60 minutes before test
  survival time, average and standard deviation: 287.0 ± 25.58
[4]; 250 mg/kg p.o., 60 minutes before test
  survival time, average and standard deviation: 306.5 ± 29.46
[4]; 300 mg/kg p.o., 60 minutes before test
  survival time, average and standard deviation: 281.6 ± 30.61
[4]; regardless of the route of administration
  protection from the toxic effects of artificial altitude: makes it possible to protect the mouse from the toxic effects of artificial altitude
[5]; conclusion, unanaesthetised rabbit
  effect on the development of electrogenesis in the cortex disrupted by unilateral cerebral oedema: beneficial effect
[5]; intragastric, 5 mg/kg
  increase of the value of the "R" index: ~30%
[5]; intragastric, 10 mg/kg, during the 8 hours following ingestion
  value of the "R" index: a clear improvement in the value of the "R" index
[5]; intravenous, 0.5 mg, 1 mg and 2 mg/kg
  activity with regard to oedema symptoms (spontaneous electrogenesis and duration of alert reactions): has a therapeutic acitivity with regard to oedema symptoms
[6]; [8]
  average number of errors: 23.4
  average time taken to leave the aquatic labyrinth: 186 s
  percentage of "normal" subjects (0-4 errors): 0 percentage
[6]; [9]
  average number of errors: 3.4
  average time taken to leave the aquatic labyrinth: 39 s
  percentage of "normal" subjects (0-4 errors): 80 percentage
[6]; [10]
  average number of errors: 15.2
  average time taken to leave the aquatic labyrinth: 96 s
  percentage of "normal" subjects (0-4 errors): 28 percentage
[6]; [11]
  average number of errors: 8.9
  average time taken to leave the aquatic labyrinth: 68 s
  percentage of "normal" subjects (0-4 errors): 52 percentage
[6]; [12]
  average number of errors: 22.6
  average time taken to leave the aquatic labyrinth: 168 s
  percentage of "normal" subjects (0-4 errors): 0 percentage
[6]; [13]
  average number of errors: 3.4
  average time taken to leave the aquatic labyrinth: 37 s
  percentage of "normal" subjects (0-4 errors): 77 percentage
[6]; [14]
  average number of errors: 13.9
  average time taken to leave the aquatic labyrinth: 103 s
  percentage of "normal" subjects (0-4 errors): 17 percentage
[6]; [15]
  average number of errors: 8.9
  average time taken to leave the aquatic labyrinth: 80 s
  percentage of "normal" subjects (0-4 errors): 47 percentage
[6]; oral route, conclusion
  recovery of memory: accelerates the recovery of memory already instilled
[7]
  stability in an acidic medium: unstable in an acidic medium
